Earlier results, collected in US4332794A, “6"-Deoxydibekacin, 4",6"-dideoxydibekacin and 1-N-aminoacyl derivatives thereof, and the production of these new compounds” (Zaidan Hojin Biseibutsu Kagaku Kenkyu Kai, priority 1979, dated 1982).

Legend:
[1] = tested on: dibekacin-resistant bacteria; conditions: prior art; cited from earlier work
[2] = Japanese patent application No. 54733/79; cited from earlier work
bacteria = conditions: Japanese patent application No. 54733/79; cited from earlier work

Compound | antibacterial activity [1] | oto-toxicity [2] | antibacterial activity compared to amikacin (bacteria)
NCC[C@H](O)C(=O)N[C@@H]1C[C@H](N)[C@@H](O[C@H]2O[C@H](CN)CC[C@H]2N)[C@H](O)[C@H]1O[C@H]1O[C@H](CO)[C@@H](O)[C@H](N)[C@H]1O [1-N-(L-4-amino-2-hydroxybutyryl)-3',4'-dideoxykanamycin B] | effective against dibekacin-resistant bacteria | – | –
C[C@@H]1C[C@H](N)[C@@H](O)[C@@H](O[C@@H]2[C@@H](O)[C@H](O[C@H]3O[C@H](CN)[C@@H](O)[C@H](O)[C@H]3O)[C@@H](N)C[C@H]2NC(=O)[C@@H](O)CCN)O1 [4",6"-dideoxyamikacin, 1-N-(L-4-amino-2-hydroxybutyryl)-4",6"-dideoxykanamycin A] | – | low oto-toxicity | antibacterial activity as high as that of amikacin
C[C@H]1O[C@H](O[C@@H]2[C@@H](O)[C@H](O[C@H]3O[C@H](CN)[C@@H](O)[C@H](O)[C@H]3O)[C@@H](N)C[C@H]2NC(=O)[C@@H](O)CCN)[C@H](O)[C@@H](N)[C@@H]1O [6"-deoxyamikacin, 1-N-(L-4-amino-2-hydroxybutyryl)-6"-deoxykanamycin A] | – | low oto-toxicity | antibacterial activity as high as that of amikacin
